This is an account of results in US20060025377A1, “Inhibitor of angiogenesis and kit for treating cancer comprising the inhibitor” (priority 2002, published 2006).

For test [1], the system named is wound region of rabbit ears (granulation tissue, capillaries). Put plainly: In vivo wound healing assay (rabbit ear wounds). To be noted: for Area of granulation tissue / Number of blood vessels / increment of the area of granulation tissue, in words / increment of the number of blood vessels, in words: 5 μM; for Area of granulation tissue / Number of blood vessels: spotted or injected intradermally to wound, negative control = 100%; for increment of the area of granulation tissue, in words / increment of the number of blood vessels, in words: comment on Table 1. On the set-up: species or system New Zealand White rabbits. Here is the method:
Female New Zealand White rabbits (body weight 2.0 kg) were used as experimental animals in this assay. PBS solution containing 0.1% BSA (BSA-PBS solution) was prepared as control solution for negative control group (comparative example 1). sphingosylphosphorylcholine (comparative example 2), phytosphingosine (comparative example 3), N-acethylphytosphingosine (comparative example 4) as positive control group, and tetraacetyl phytosphingosine (example 1) were dissolved in ethanol or methanol respectively. Each portion of the solutions was added to silicone glass tube. Then, it was charged with N2 gas, and added 0.1% BSA-PBS solution. After coupling them with water sonicator and vortex, these solutions were spotted on and injected intradernally to wound region of experimental animals. At the same time, to study an effect of the angiogenesis as concentrations of tetraacethylsphingosine, the animal was treated with 0.1 μM, 1 μM, 2 μM and 5 μM of tetraacethylsphingosine, and campared with the results. Experimental animals were put into special stainless cages which was designed suitably to assay experimental animals, anesthetized by injecting ketanine (3-4 mg/kg) intramuscularly. The hair and corneous tissue of innerside of both ears were removed with shaving and washing, and then were disinfected with 70% ethanol. Four wound regions per ear were formed by using 6 mm punch for sldn histological examination (Stiefel, Germany) under sterile condition if possible, and each wound region was spotted or injected intradennally 30-50 μl of the control solution or each treatment material. Wound regions were sealed with cathereep (Nichiban Co., Tokyo Japan) which was cut in size which are greater than that of wound region to prevent contamination of the wound regions and formation of crust. Then, the wound regions were protected with 2×2 gauze, and ears of rabbit were bandaged with elastopore (Nichiban Co., Tokyo Japan). Subsequently, the rabbits were bred in a cage per a rabbit. After 48 hrs, same procedure was repeated. On 4 days and 8 days after forming wound regions, sacrificing the rabbits and treating tissue for histological study. For histological study, wound tissues were fixed with 10% formalin, cut it in half longitudinally and made paraffin block. Then, approximately 5 μm of segment was made, attached it to slide and stained with hematoxylin and eosin to observe a change of epidermis and dermis, and stained with Massons Trichrome to observe a degree of collagen formation of granulation tissue.
First, stained tissue specimen was calibrated with ocular micrometer of optical microscope for image analysis. Then, After photographing each histological change aspects with digital camera under 40× and 100× objective lens and saving them on computer (Pentium III), image analysis was carried out with Scion Image for Windows software which was provided by (C) 2000 Scion corporation as follows: that is, degree of epidermis migration could be determined by measuring the distance from left to right boundary of wound, and thickness of newly formed epidermis could be determined by measuring the thickness of three spots in 1 mm of pitch and averaging measured values. To compare with degree of granulation tissue formation of dermis, three methods were used: 1) A method of measuring total area of newly formed granulation tissue and comparing with it; 2) A method of counting the number of cells such as fibroblast presented in six spots of center region of wound under high magnification (100×) and comparing with it; and 3) A method of determining degree of angiogenesis by counting the number of capillaries in granulation tissue in a same way as described above. If there was eschar, it wasn't determined. The data obtained from the negative control group, the positive control group and the experinental group were analyzed statistically by carrying out paired student's t test. […]

A further test relates to endothelial cells. Put plainly: Migration assay of endothelial cells (Transwell). The conditions noted are these: 0.1 μM, 1 μM and 5 μM; 2 hrs; fewer migrated cells with increasing concentration; FIG. 6 and FIG. 7. The class given is cell-based. The method, then:
Transwell membranes were coated with 0.2% gelatin, and then were left for 12 hrs at 4° C. The membrane for control group was treated with BSA-PBS as described in the above examples, whereas the membranes for experimental group were treated with 0.1 μM, 1 μM and 5 μM of tetraacetylphytosphingosine solution according to the present invention respectively as described in the above examples. After incubating these membranes for 2 hrs, staining them with Diff Quick solution, and then observing them on slide glass.

Test [2] has as its system HUVEC (human umbilical vein endothelial cell). Put plainly: Angiogenesis test of HUVEC (tube formation test). The class given is cell-based. The conditions noted are these: FIG. 4 and FIG. 5. The method, then: Above suspension procedure was repeated twice.
Matrigel was prepared as follows: First, collagen solution was prepared by mixing commercially available acid-soluble porcine type I collagen (3.0 mg/ml), 5× DMEM and buffer (0.05 N NaOH, 2.2% NaHCO3, 200 mM HEPES; 7:2:1), loaded to 24 well or 96 well (100-300 μl/well) dividedly, and then incubated for approximately 10 mins to form a gel due to polymerization of collagen. Primary culture was carried to obtain HUVEC (those which were passaged five times), removed cells at 37° C., washed cells with PBS, detached cells with trypsin/EDTA, loaded cells to wells (4-6×10^4 cells/well), and then fiuther incubated for 12-18 hrs.

`CCCCCCCCCCCCCC[C@@H](O)[C@@H](O)[C@@H](N)CO` [PS, phytosphingosine]: in test [1], the “Area of granulation tissue” value was found to be 112% and the “Number of blood vessels” value worked out at 106%.
Take `CCCCCCCCCCCCC/C=C/[C@@H](O)[C@@H](N)COP(=O)([O-])OCC[N+](C)(C)C` [SPC, sphingosylphosphorylcholine]: in test [1], the “Area of granulation tissue” value is 151%; the “Number of blood vessels” value is 148%; the “increment of the area of granulation tissue, in words” value is recorded as “prompted increment”; the “increment of the number of blood vessels, in words” value is on record as “prompted increment”.
For the compound `CCCCCCCCCCCCCC[C@@H](O)[C@@H](O)[C@H](CO)NC(C)=O` [NAPS, N-acethylphytosphingosine], in test [1], the “Area of granulation tissue” value is on record as 212% and the “Number of blood vessels” value is given as 96%.
As to tetraacetylphytosphingosine [TAPS], in the test on endothelial cells, the “migration of endothelial cells, in words” value is listed as “migration of endothelial cells were inhibited”. Further, the “number of blood vessels (angiogenesis), in words” value in test [1] (0.1 μM, 1 μM, 2 μM and 5 μM, 4 days after treatment, vs negative control, FIG. 1) is reported as “inhibited angiogenesis greatly”. Besides, in test [1] (0.1 μM, 1 μM, 2 μM and 5 μM, 4 days after treatment, vs negative control, FIG. 2), the “area of granulation tissue, in words” value is reported as “decreased the area of granulation tissue”. Besides, in test [1], the “Area of granulation tissue” value is listed as 76%; the “Number of blood vessels” value is 31%; the “increment of the area of granulation tissue, in words” value is “inhibited increment”; the “increment of the number of blood vessels, in words” value is “inhibited increment”. Further, in test [2] (0.1 μM), the “formation of blood vessels (tube formation), in words” value was “inhibited effectively a formation of blood vessels”. For the same compound, the “formation of blood vessels (tube formation), in words” value in test [2] (1 μM) is “inhibited nearly completely a formation of blood vessels”.
